Assay results: US8758816B2, “Compositions comprising azelastine and methods of use thereof” (priority 2004, dated 2014)
Counter-ions that a name gives are not always drawn.

Test system: patients with seasonal allergic rhinitis (SAR)
Experiment: MP 428 study: individual symptom severity scores (runny nose, itchy nose, sneezing, congestion; 0-3 scale)
Assay type: in vivo, human
Settings: Intent-to-Treat Population
Description: A two-week, randomized, double-blind study, which evaluated the effects of the co-administration of ASTELIN® (azelastine hydrochloride (HCl)) and FLONASE® (fluticasone propionate) compared to either product alone in patients with seasonal allergic rhinitis (SAR) was conducted during the 2006 Texas mountain cedar season. After a 5-day placebo lead-in period, 151 patients with moderate-to-severe allergic rhinitis symptoms were randomized to either: (1) (49 total patients) ASTELIN® (azelastine hydrochloride (HCl)) plus placebo saline nasal spray 2 sprays per nostril, 15 minutes apart, twice daily (AM & PM); (2) (50 total patients) FLONASE® (fluticasone propionate) plus placebo saline nasal spray, 2 sprays per nostril, 15 minutes apart, once daily (AM) and two sessions of placebo saline nasal spray, 2 sprays per nostril, 15 minutes apart (PM); or (3) (52 total patients) the co-administration of ASTELIN® (azelastine hydrochloride (HCl)) 2 sprays per nostril plus FLONASE® (fluticasone propionate) 2 sprays per nostril (AM), 15 minutes apart, and ASTELIN® (azelastine hydrochloride (HCl)) 2 sprays per nostril plus placebo saline nasal spray, 15 minutes apart, (PM) for a 2-week double-blind treatment period.
The primary efficacy variable was the change from baseline in the Total Nasal Symptom Score (TNSS), which comprised sneezing, itchy nose, runny nose, and nasal congestion (individual symptoms scores were assigned a value between 0 and 3, where 0=no symptoms and 3=severe symptoms). This study was not statistically designed to assess the differences between ASTELIN® and FLONASE®.
The results of the clinical trial are summarized and presented in Appendix A hereinbelow and in FIGS. 1-6. […] FIGS. 2-5 show the mean improvement in severity score (0-3 scale) from baseline for the symptoms of runny nose, itchy nose, sneezing and congestion, respectively.

SMILES: CN1CCCC(n2nc(Cc3ccc(Cl)cc3)c3ccccc3c2=O)CC1 (racemic) [Azelastine, (±)-1-(2H)-phthalazinone, 4-[(4-chlorophenyl)methyl]-2-(hexahydro-1-methyl-1H-azepin-4-yl)-, mono-hydrochloride]
- Change from Baseline in AM and PM Combined Nasal Symptom Score: Congestion, LS Mean (Day 9): −1.20
- Change from Baseline in AM and PM Combined Nasal Symptom Score: Congestion, Mean (Day 9): −1.23
- Change from Baseline in AM and PM Combined Nasal Symptom Score: Congestion, Median (Day 9): −1.00
- Change from Baseline in AM and PM Combined Nasal Symptom Score: Itchy Nose, LS Mean (Day 9): −1.29
- Change from Baseline in AM and PM Combined Nasal Symptom Score: Itchy Nose, Mean (Day 9): −1.27
- Change from Baseline in AM and PM Combined Nasal Symptom Score: Itchy Nose, Median (Day 9): −0.93
- Change from Baseline in AM and PM Combined Nasal Symptom Score: Runny Nose, LS Mean (Day 9): −1.14
- Change from Baseline in AM and PM Combined Nasal Symptom Score: Runny Nose, Mean (Day 9): −1.15
- Change from Baseline in AM and PM Combined Nasal Symptom Score: Runny Nose, Median (Day 9): −0.90
- Change from Baseline in AM and PM Combined Nasal Symptom Score: Sneezing, LS Mean (Day 9): −1.72
- Change from Baseline in AM and PM Combined Nasal Symptom Score: Sneezing, Mean (Day 9): −1.73
- Change from Baseline in AM and PM Combined Nasal Symptom Score: Sneezing, Median (Day 9): −1.67
- Percent Change from Baseline in AM and PM Combined Nasal Symptom Score: Congestion, LS Mean (Day 9): −21.68%
- Percent Change from Baseline in AM and PM Combined Nasal Symptom Score: Congestion, Mean (Day 9): −22.05%
- Percent Change from Baseline in AM and PM Combined Nasal Symptom Score: Congestion, Median (Day 9): −18.64%
- Percent Change from Baseline in AM and PM Combined Nasal Symptom Score: Itchy Nose, LS Mean (Day 9): −27.69%
- Percent Change from Baseline in AM and PM Combined Nasal Symptom Score: Itchy Nose, Mean (Day 9): −26.97%
- Percent Change from Baseline in AM and PM Combined Nasal Symptom Score: Itchy Nose, Median (Day 9): −21.57%
- Percent Change from Baseline in AM and PM Combined Nasal Symptom Score: Runny Nose, LS Mean (Day 9): −23.07%
- Percent Change from Baseline in AM and PM Combined Nasal Symptom Score: Runny Nose, Mean (Day 9): −23.25%
- Percent Change from Baseline in AM and PM Combined Nasal Symptom Score: Runny Nose, Median (Day 9): −21.74%
- Percent Change from Baseline in AM and PM Combined Nasal Symptom Score: Sneezing, LS Mean (Day 9): −36.31%
- Percent Change from Baseline in AM and PM Combined Nasal Symptom Score: Sneezing, Mean (Day 9): −36.04%
- Percent Change from Baseline in AM and PM Combined Nasal Symptom Score: Sneezing, Median (Day 9): −35.48%
- Change from Baseline in AM and PM Combined Nasal Symptom Score: Congestion, LS Mean (Day 10): −1.12
- Change from Baseline in AM and PM Combined Nasal Symptom Score: Congestion, Mean (Day 10): −1.17
- Change from Baseline in AM and PM Combined Nasal Symptom Score: Congestion, Median (Day 10): −1.00
- Change from Baseline in AM and PM Combined Nasal Symptom Score: Itchy Nose, LS Mean (Day 10): −1.35
- Change from Baseline in AM and PM Combined Nasal Symptom Score: Itchy Nose, Mean (Day 10): −1.35
- Change from Baseline in AM and PM Combined Nasal Symptom Score: Itchy Nose, Median (Day 10): −1.10
- Change from Baseline in AM and PM Combined Nasal Symptom Score: Runny Nose, LS Mean (Day 10): −1.11
- Change from Baseline in AM and PM Combined Nasal Symptom Score: Runny Nose, Mean (Day 10): −1.13
- Change from Baseline in AM and PM Combined Nasal Symptom Score: Runny Nose, Median (Day 10): −0.83
- Change from Baseline in AM and PM Combined Nasal Symptom Score: Sneezing, LS Mean (Day 10): −1.70
- Change from Baseline in AM and PM Combined Nasal Symptom Score: Sneezing, Mean (Day 10): −1.71
- Change from Baseline in AM and PM Combined Nasal Symptom Score: Sneezing, Median (Day 10): −1.75
- Percent Change from Baseline in AM and PM Combined Nasal Symptom Score: Congestion, LS Mean (Day 10): −20.32%
- Percent Change from Baseline in AM and PM Combined Nasal Symptom Score: Congestion, Mean (Day 10): −20.94%
- Percent Change from Baseline in AM and PM Combined Nasal Symptom Score: Congestion, Median (Day 10): −16.67%
- Percent Change from Baseline in AM and PM Combined Nasal Symptom Score: Itchy Nose, LS Mean (Day 10): −29.83%
- Percent Change from Baseline in AM and PM Combined Nasal Symptom Score: Itchy Nose, Mean (Day 10): −29.56%
- Percent Change from Baseline in AM and PM Combined Nasal Symptom Score: Itchy Nose, Median (Day 10): −21.57%
- Percent Change from Baseline in AM and PM Combined Nasal Symptom Score: Runny Nose, LS Mean (Day 10): −22.00%
- Percent Change from Baseline in AM and PM Combined Nasal Symptom Score: Runny Nose, Mean (Day 10): −22.22%
- Percent Change from Baseline in AM and PM Combined Nasal Symptom Score: Runny Nose, Median (Day 10): −16.67%
- Percent Change from Baseline in AM and PM Combined Nasal Symptom Score: Sneezing, LS Mean (Day 10): −41.13%
- Percent Change from Baseline in AM and PM Combined Nasal Symptom Score: Sneezing, Mean (Day 10): −40.82%
- Percent Change from Baseline in AM and PM Combined Nasal Symptom Score: Sneezing, Median (Day 10): −38.78%
- Change from Baseline in AM and PM Combined Nasal Symptom Score: Congestion, LS Mean (Day 11): −1.18
- Change from Baseline in AM and PM Combined Nasal Symptom Score: Congestion, Mean (Day 11): −1.23
- Change from Baseline in AM and PM Combined Nasal Symptom Score: Congestion, Median (Day 11): −0.92
- Change from Baseline in AM and PM Combined Nasal Symptom Score: Itchy Nose, LS Mean (Day 11): −1.39
- Change from Baseline in AM and PM Combined Nasal Symptom Score: Itchy Nose, Mean (Day 11): −1.37
- Change from Baseline in AM and PM Combined Nasal Symptom Score: Itchy Nose, Median (Day 11): −1.10
- Change from Baseline in AM and PM Combined Nasal Symptom Score: Runny Nose, LS Mean (Day 11): −1.35
- Change from Baseline in AM and PM Combined Nasal Symptom Score: Runny Nose, Mean (Day 11): −1.38
- Change from Baseline in AM and PM Combined Nasal Symptom Score: Runny Nose, Median (Day 11): −1.10
- Change from Baseline in AM and PM Combined Nasal Symptom Score: Sneezing, LS Mean (Day 11): −1.79
- Change from Baseline in AM and PM Combined Nasal Symptom Score: Sneezing, Mean (Day 11): −1.79
- Change from Baseline in AM and PM Combined Nasal Symptom Score: Sneezing, Median (Day 11): −1.55
- Percent Change from Baseline in AM and PM Combined Nasal Symptom Score: Congestion, LS Mean (Day 11): −20.72%
- Percent Change from Baseline in AM and PM Combined Nasal Symptom Score: Congestion, Mean (Day 11): −21.53%
- Percent Change from Baseline in AM and PM Combined Nasal Symptom Score: Congestion, Median (Day 11): −16.67%
- Percent Change from Baseline in AM and PM Combined Nasal Symptom Score: Itchy Nose, LS Mean (Day 11): −30.38%
- Percent Change from Baseline in AM and PM Combined Nasal Symptom Score: Itchy Nose, Mean (Day 11): −29.59%
- Percent Change from Baseline in AM and PM Combined Nasal Symptom Score: Itchy Nose, Median (Day 11): −22.33%
- Percent Change from Baseline in AM and PM Combined Nasal Symptom Score: Runny Nose, LS Mean (Day 11): −25.36%
- Percent Change from Baseline in AM and PM Combined Nasal Symptom Score: Runny Nose, Mean (Day 11): −25.83%
- Percent Change from Baseline in AM and PM Combined Nasal Symptom Score: Runny Nose, Median (Day 11): −21.57%
- Percent Change from Baseline in AM and PM Combined Nasal Symptom Score: Sneezing, LS Mean (Day 11): −43.40%
- Percent Change from Baseline in AM and PM Combined Nasal Symptom Score: Sneezing, Mean (Day 11): −42.70%
- Percent Change from Baseline in AM and PM Combined Nasal Symptom Score: Sneezing, Median (Day 11): −38.78%
- Change from Baseline in AM and PM Combined Nasal Symptom Score: Congestion, LS Mean (Day 12): −1.21
- Change from Baseline in AM and PM Combined Nasal Symptom Score: Congestion, Mean (Day 12): −1.27
- Change from Baseline in AM and PM Combined Nasal Symptom Score: Congestion, Median (Day 12): −1.00
- Change from Baseline in AM and PM Combined Nasal Symptom Score: Itchy Nose, LS Mean (Day 12): −1.33
- Change from Baseline in AM and PM Combined Nasal Symptom Score: Itchy Nose, Mean (Day 12): −1.33
- Change from Baseline in AM and PM Combined Nasal Symptom Score: Itchy Nose, Median (Day 12): −1.00
- Change from Baseline in AM and PM Combined Nasal Symptom Score: Runny Nose, LS Mean (Day 12): −1.22
- Change from Baseline in AM and PM Combined Nasal Symptom Score: Runny Nose, Mean (Day 12): −1.25
- Change from Baseline in AM and PM Combined Nasal Symptom Score: Runny Nose, Median (Day 12): −0.43
- Change from Baseline in AM and PM Combined Nasal Symptom Score: Sneezing, LS Mean (Day 12): −1.63
- Change from Baseline in AM and PM Combined Nasal Symptom Score: Sneezing, Mean (Day 12): −1.63
- Change from Baseline in AM and PM Combined Nasal Symptom Score: Sneezing, Median (Day 12): −1.73
